Experimental data taken from patent US10131652B2, “Pyrimidinyloxy benzene derivatives as herbicides” (E. I. DU PONT DE NEMOURS AND COMPANY, priority 2014, dated 2018).
Like-named read-outs stand apart in the source and are kept apart here.

Experiments:
Format in all cases: in vivo
[1] = test system: kochia (Kochia scoparia); test: Test B pre-/postemergence plant response
How it was run: (§1)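 Visual injury rating, 0 (no effect) to 100 (complete control), vs untreated controls after ~10 d greenhouse. Pre: directed soil spray after planting in loam/sand. Post: plants 2–10 cm, 1–2 leaf stage. Compound in non-phytotoxic solvent plus surfactant.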

[2] = test system: Italian ryegrass (Lolium multiflorum); test: Test B pre-/postemergence plant response
How it was run: as §1

[3] = test system: ragweed (common ragweed, Ambrosia elatior); test: Test B pre-/postemergence plant response
How it was run: as §1

[4] = test system: blackgrass (Alopecurus myosuroides); test: Test D pre-/postemergence plant response; details: Alopecurus myosuroides; for pest or weed control at 16 g/ha: 16 g ai/ha; for pest or weed control at 31 g/ha: 31 g ai/ha; for pest or weed control at 62 g/ha: 62 g ai/ha; for pest or weed control at 125 g/ha: 125 g ai/ha
How it was run: (§2)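 Pre-/post-emergence greenhouse test. Pre: seeded loam+sand, sprayed same day. Post: 1–4 leaf plants (2–18 cm), peat/vermiculite mix. Formulation: non-phytotoxic solvent + surfactant. Scored visually d13–15, 0–100 vs control.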

[5] = test system: Italian ryegrass (Lolium multiflorum); test: Test D pre-/postemergence plant response; details: Lolium multiflorum; for pest or weed control at 16 g/ha: 16 g ai/ha; for pest or weed control at 31 g/ha: 31 g ai/ha; for pest or weed control at 62 g/ha: 62 g ai/ha; for pest or weed control at 125 g/ha: 125 g ai/ha
How it was run: as §2

[6] = test system: pigweed (Amaranthus retroflexus); test: Test D pre-/postemergence plant response; details: Amaranthus retroflexus; for pest or weed control at 16 g/ha: 16 g ai/ha; for pest or weed control at 31 g/ha: 31 g ai/ha; for pest or weed control at 62 g/ha: 62 g ai/ha; for pest or weed control at 125 g/ha: 125 g ai/ha
How it was run: as §2

[7] = test system: oilseed rape (Brassica napus); test: Test D pre-/postemergence plant response; details: Brassica napus; for plant injury at 16 g/ha: 16 g ai/ha; for plant injury at 31 g/ha: 31 g ai/ha; for plant injury at 62 g/ha: 62 g ai/ha; for plant injury at 125 g/ha: 125 g ai/ha
How it was run: as §2

[8] = test system: large (Lg) crabgrass (Digitaria sanguinalis); test: Test D pre-/postemergence plant response; details: Digitaria sanguinalis, post-emergence, Postemergence
How it was run: as §2

[9] = 125 g ai/ha, postemergence, 0 to 100 scale, 0 no effect, 100 complete control
[10] = Postemergence, 500 g ai/ha, 0 to 100 scale (0 no effect, 100 complete control)
[11] = Preemergence, 125 g ai/ha, 0 to 100 scale where 0 is no effect and 100 is complete control
[12] = Preemergence, 500 g ai/ha, 0 to 100 scale where 0 is no effect and 100 is complete control
[13] = post-emergence, Postemergence, scale 0 to 100 (0 no effect, 100 complete control), read-out: Blackgrass plant response rating
[14] = post-emergence, Postemergence, scale 0 to 100, 0 no effect, 100 complete control, read-out: Plant response rating, Blackgrass
[15] = pre-emergence, Preemergence, scale 0 to 100 (0 no effect, 100 complete control), read-out: Plant response rating, Blackgrass
[16] = post-emergence, Postemergence, scale 0 to 100 (0 no effect, 100 complete control), read-out: Ryegrass, Italian plant response rating
[17] = post-emergence, Postemergence, scale 0 to 100, 0 no effect, 100 complete control, read-out: Plant response rating, Ryegrass, Italian
[18] = pre-emergence, Preemergence, scale 0 to 100 (0 no effect, 100 complete control), read-out: Plant response rating, Ryegrass, Italian
[19] = post-emergence, Postemergence, scale 0 to 100 (0 no effect, 100 complete control), read-out: Pigweed plant response rating
[20] = post-emergence, Postemergence, scale 0 to 100, 0 no effect, 100 complete control, read-out: Plant response rating, Pigweed
[21] = pre-emergence, Preemergence, scale 0 to 100 (0 no effect, 100 complete control), read-out: Plant response rating, Pigweed
[22] = post-emergence, Postemergence, scale 0 to 100 (0 no effect, 100 complete control), read-out: Oilseed Rape plant response rating
[23] = post-emergence, Postemergence, scale 0 to 100, 0 no effect, 100 complete control, read-out: Plant response rating, Oilseed Rape
[24] = pre-emergence, Preemergence, scale 0 to 100 (0 no effect, 100 complete control), read-out: Plant response rating, Oilseed Rape

FC(F)c1cc(-c2ccccc2Oc2ncc(Cl)cn2)on1 [Compound 53, 5-chloro-2-[2-[3-(difluoromethyl)-5-isoxazolyl]phenoxy]pyrimidine]
Plant response rating, Kochia [1, 9]: 100
Plant response rating, Kochia [1, 10]: 100
Plant response rating, Kochia [1, 11]: 100
Plant response rating, Kochia [1, 12]: 100
Plant response rating, Ryegrass, Italian [2, 9]: 80
Plant response rating, Ryegrass, Italian [2, 10]: 100
Plant response rating, Ryegrass, Italian [2, 11]: 10
Plant response rating, Ryegrass, Italian [2, 12]: 40
Plant response rating, Ragweed [3, 9]: 60
Plant response rating, Ragweed [3, 10]: 90
Plant response rating, Ragweed [3, 11]: 10
Plant response rating, Ragweed [3, 12]: 50
pest or weed control at 16 g/ha [4, 13]: 5%
pest or weed control at 31 g/ha [4, 13]: 40%
pest or weed control at 62 g/ha [4, 14]: 20%
pest or weed control at 125 g/ha [4, 14]: 30%
pest or weed control at 125 g/ha ([4]; pre-emergence, Preemergence, read-out: Plant response rating (scale 0 to 100), Blackgrass): 95%
pest or weed control at 16 g/ha [4, 15]: 5%
pest or weed control at 31 g/ha [4, 15]: 25%
pest or weed control at 62 g/ha [4, 15]: 90%
pest or weed control at 16 g/ha [5, 16]: 0%
pest or weed control at 31 g/ha [5, 16]: 5%
pest or weed control at 62 g/ha [5, 17]: 5%
pest or weed control at 125 g/ha [5, 17]: 5%
pest or weed control at 125 g/ha ([5]; pre-emergence, Preemergence, read-out: Plant response rating (scale 0 to 100), Ryegrass, Italian): 60%
pest or weed control at 16 g/ha [5, 18]: 0%
pest or weed control at 31 g/ha [5, 18]: 10%
pest or weed control at 62 g/ha [5, 18]: 15%
pest or weed control at 16 g/ha [6, 19]: 85%
pest or weed control at 31 g/ha [6, 19]: 90%
pest or weed control at 62 g/ha [6, 20]: 90%
pest or weed control at 125 g/ha [6, 20]: 100%
pest or weed control at 125 g/ha ([6]; pre-emergence, Preemergence, read-out: Plant response rating (scale 0 to 100), Pigweed): 100%
pest or weed control at 16 g/ha [6, 21]: 95%
pest or weed control at 31 g/ha [6, 21]: 100%
pest or weed control at 62 g/ha [6, 21]: 100%
plant injury at 16 g/ha [7, 22]: 70%
plant injury at 31 g/ha [7, 22]: 80%
plant injury at 62 g/ha [7, 23]: 95%
plant injury at 125 g/ha [7, 23]: 85%
plant injury at 125 g/ha ([7]; pre-emergence, Preemergence, read-out: Plant response rating (scale 0 to 100), Oilseed Rape): 100%
plant injury at 16 g/ha [7, 24]: 80%
plant injury at 31 g/ha [7, 24]: 100%
plant injury at 62 g/ha [7, 24]: 100%
pest or weed control at 16 g/ha ([8]; 16 g ai/ha, scale 0 to 100 (0 no effect, 100 complete control), read-out: Crabgrass, Large plant response rating): 10%
pest or weed control at 31 g/ha ([8]; 31 g ai/ha, scale 0 to 100 (0 no effect, 100 complete control), read-out: Crabgrass, Large plant response rating): 20%
pest or weed control at 62 g/ha ([8]; 62 g ai/ha, scale 0 to 100, 0 no effect, 100 complete control, read-out: Plant response rating, Crabgrass, Large): 15%
pest or weed control at 125 g/ha ([8]; 125 g ai/ha, scale 0 to 100, 0 no effect, 100 complete control, read-out: Plant response rating, Crabgrass, Large): 30%
